Results: patent US20050272817A1, “Dermatological use and a dermatological preparation” (priority 2000, published 2005)

Key:
[1] = system: psoriatic plaques; experiment: Continuation of the therapeutic trial from 35 days onward (to 70 days); type: in vivo, human; settings: for change (reduction) in plaque area: from day 35: plaque 2 (earlier Daivonex) no treatment, plaque 3 (earlier T4A) Locobase, plaque 4 (earlier T4A+T4) T4 ointment 5 μg/cm^2/24 h; for effect on psoriatic rash (in words): topically applied
Procedure: The therapeutic trial was continued from 35 days onward as follows:
Locobase® ointment containing […], T4, per gram (University Pharmacy, Helsinki, Finland).
As previously, the ointments were applied to the target plaques at 50 mg/cm^2 twice in 24 hours. Thus, the dose of T4 to plaque 4 was 5 μg T4 per cm^2 per 24 hours.

[2] = system: thyroid hormone activity; settings: background statement; cited from earlier work
[3] = system: psoriatic plaques; experiment: Additional embodiment: topical T3A or D-T4 with or without T4A on psoriatic plaques, 35 days; type: in vivo, human; settings: for effect on psoriatic rash (conclusions, in words): topically administered
Procedure: Simultaneous topical treatment of four untreated, typically scaling and demarcated dermatitic plaques (plaques 1-4) in a psoriatic patient was undertaken. Plaque 5 was left untreated for comparison.
The areas of the plaques at initiation of the treatment were as follows: plaque 1: 5.3 cm^2, plaque 2: 4.9 cm^2, plaque 3: 6.4 cm^2, plaque 4: 5.3 cm^2; plaque 5: 5.6 cm^2.
Triacana® cream containing 200 μg 3,5,3′-triiodothyroacetic acid, T3A, (triac, tiratricol) per gram.
Triacana® cream plus Locobase® unctuous cream containing 500 μg 3,3′,5,5′-tetraiodothyroacetic acid, T4A, per gram (University Pharmacy, Helsinki, Finland. Ex tempore-preparation).
Locobase® unctuous cream containing 2500 μg D-thyroxine, D-T4, per gram (University Pharmacy, Helsinki, Finland. Ex tempore-preparation).
Locobase® unctuous cream containing 2500 μg D-thyroxine, D-T4, per gram (University Pharmacy, Helsinki, Finland. Ex tempore-preparation) plus Locobase® unctuous cream containing 500 μg 3,3′,5,5′-tetraiodothyroacetic acid, T4A, per gram (University Pharmacy, Helsinki, Finland. Ex tempore-preparation).
Triacana® cream was applied to plaques 1 and 2 at 125 mg/cm^2 twice in 24 hours, corresponding to 50 μg 3,5,3′-triiodothyroacetic acid per cm^2 per 24 hours.
T4A-ointment was applied to plaque 2 concurrently with Triacana® cream at 50 mg/cm^2 twice in 24 hours, corresponding to 50 μg 3,3′,5,5′-tetraiodothyroacetic acid per cm^2 per 24 hours.
D-T4-ointment was applied to plaques 3 and 4 at 50 mg/cm^2 twice in 24 hours, corresponding to 250 μg D-T4, per cm^2 per 24 hours.
T4A-ointment was applied to plaque 4 concurrently with the D-T4-ointment at 50 mg/cm^2 twice in 24 hours corresponding to 50 μg/cm^2 3,3′,5,5′-tetraiodothyroacetic acid per cm^2 per 24 hours.
Treatment was continued in this manner for 35 days.

[4] = system: psoriatic plaques; experiment: Topical treatment of psoriatic plaques in a psoriatic patient, 35 days; type: in vivo, human; settings: for change (reduction) in plaque area: ointment 50 mg/cm^2 twice in 24 hours
Text: Simultaneous topical treatment of four untreated, typically scaling and sharply demarcated dermatitic plaques ([…]) in a psoriatic patient was undertaken. Plaque 5 was left untreated for comparison.
The areas of the plaques at initiation of the treatment were as follows: plaque 1: 8.7 cm^2; plaque 2: 8.1 cm^2; plaque 3: 6.8 cm^2; plaque 4: 6.1 cm^2; plaque 5: 6.4 cm^2.
The following ointments were applied to plaques 1-4:
Locobase.RTM. unctuous cream (Yamanouchi Europe B. V., Leiderup, Holland).
Daivonex.RTM. calcipotriol ointment containing 50µg calcipotriol per gram (L.o slashed.vens Kemiske Fabrik, Ballerup, Denmark).
Locobase.RTM.D unctuous cream containing 500µg 3,3′,5,5′-tetraiodothyroacetic acid, T4A, per gram (University Pharmacy, Helsinki, Finland).
Locobase.RTM. unctuous cream containing 500 μg T4A per gram and […], T4, per gram (University Pharmacy, Helsinki, Finland).
Each ointment was applied to the plaques at 50 mg/cm^2 twice in 24 hours, corresponding to 5µg calcipotriol per cm^2 per 24 hours for plaque 2, 50 μg T4A per cm^2 per 24 hours for plaques 3 and 4, and 5 μg T4 per cm^2 per 24 hours for plaque 4. Treatment was continued in this manner for 35 days.
The results are presented in Table 1 below, showing the change (reduction) in plaque area with time (days).

[5] = system: psoriatic plaque; experiment: Topical T4P ointment on a previously untreated psoriatic plaque; type: in vivo, human; settings: T4P 25 μg/cm^2 twice per 24 hours for 35 days; follow-up 42 days
Procedure: The topical effect of T4P, 3,3′,5,5′-tetraiodothyropropionic acid ointment on a previously untreated psoriatic plaque, on psoriasis was studied in a therapeutic design identical with the above. The dosage of T4P was 25 μg/cm^2 twice per 24 hours for 35 days. The follow-up period was 42 days. […] Effect of 3,3′,5,5′-tetraiodothyropropionic acid (T4P) ointment on a previously untreated psoriatic plaque. The dosage of T4P was 25 μg/cm^2 twice per 24 hours for 35 days. The follow-up period was 42 days.

[6] = system: psoriasis; settings: topical calcipotriol therapy; cited from earlier work

Compound: O=C(O)Cc1cc(I)c(Oc2cc(I)c(O)c(I)c2)c(I)c1 [T4A, 3,3′,5,5′-tetraiodothyroacetic acid]
- change (reduction) in plaque area ([1]; 42 days): 95%
- change (reduction) in plaque area ([1]; 50 days): 95%
- change (reduction) in plaque area ([1]; 62 days): 90%
- change (reduction) in plaque area ([1]; 70 days): 80%
- inhibition of the rash-worsening effect of T4 ([1]; topical T4A 50 μg/cm^2/24 h with T4 5 μg/cm^2/24 h): completely inhibits this effect
- effect on psoriatic rash (in words) [1]: therapeutically efficacious
- thyroid hormone activity relative to T4 [2]: about one-fourth
- effect on psoriatic rash (conclusions, in words) [3]: separate and prominent antipsoriatic effect
- change (reduction) in plaque area ([4]; 14 days): 45%
- change (reduction) in plaque area ([4]; 21 days): 65%
- change (reduction) in plaque area ([4]; 28 days): 85%
- effect on psoriatic plaques (in words) ([4]; 35 days topical treatment): clear effect
- therapeutic efficacy in terms of reduction in plaque area, compared with calcipotriol ointment ([4]; 35 days topical treatment): better than that of the calcipotriol ointment
- change (reduction) in plaque area ([4]; 35 days): 90%

Compound: O=C(O)Cc1cc(I)c(Oc2ccc(O)c(I)c2)c(I)c1 [T3A, 3,5,3′-triiodothyroacetic acid]
- effect on psoriatic rash (conclusions, in words) [3]: did not have any visible effect

Compound: N[C@@H](Cc1cc(I)c(Oc2ccc(O)c(I)c2)c(I)c1)C(=O)O [T3, 3,3′,5-triiodo-L-thyronine, reference compound]
- thyroid hormone activity relative to T4 [2]: five times that of T4

Compound: N[C@@H](Cc1cc(I)c(Oc2cc(I)c(O)c(I)c2)c(I)c1)C(=O)O [T4, 3,3′,5,5′-tetraiodo-L-thyronine, reference compound]
- change (reduction) in plaque area ([1]; 42 days): 70%
- change (reduction) in plaque area ([1]; 50 days): 25%
- change (reduction) in plaque area ([1]; 62 days): -10%
- change (reduction) in plaque area ([1]; 70 days): −50% ^
- increase of the area of plaque 4 compared with baseline ([1]; T4 ointment 5 μg/cm^2/24 h from day 35 to day 70, plaque previously treated with T4A+T4): 50%
- effect on psoriatic rash (in words) [1]: worsened

Compound: O=C(O)CCc1cc(I)c(Oc2cc(I)c(O)c(I)c2)c(I)c1 [T4P, 3,3′,5,5′-tetraiodothyropropionic acid]
- thyroid hormone activity relative to T4 [2]: about one-fourth
- inhibition of the effects of T4 [5]: completely inhibit the effects of T4
- therapeutic efficacy compared with T4A [5]: equal to T4A in therapeutic efficacy

Compound: N[C@H](Cc1cc(I)c(Oc2cc(I)c(O)c(I)c2)c(I)c1)C(=O)O [D-T4, D-thyroxine]
- thyroid hormone activity relative to T4 [2]: substantially less thyroid hormone activity than T4
- changes in the area or appearance of the plaque during the whole treatment period ([3]; 35 days, T3A 50 μg/cm^2/24 h or D-T4 250 μg/cm^2/24 h alone): no visible changes
- effect on psoriatic rash (conclusions, in words) [3]: did not have any visible effect

Compound: C=C1/C(=C\C=C2/CCC[C@]3(C)[C@@H]([C@H](C)/C=C/[C@@H](O)C4CC4)CC[C@@H]23)C[C@@H](O)C[C@@H]1O [calcipotriol]
- complete removal of dermatitic plaques, share of cases [6]: about 15%
